Experiments:
Rattus norvegicus [1] = test: Dose normalized Cmax inSprague-Dawley rat at 6 mg/kg, po; type: ADME, organism-based, Sprague-Dawley; set-up: dose 6 mg/kg, route oral; conditions: in vivo
Rattus norvegicus [2] = test: Reduction in mean arterial pressure in human renin and human angiotensinogen double transgenic rat at 10 mg/kg, po; type: functional, Artery
Rattus norvegicus [3] = test: Reduction in mean arterial pressure in human renin and human angiotensinogen double transgenic rat at 3 mg/kg, po; type: functional, Artery
Rattus norvegicus [4] = test: Dose normalized AUC (infinity) in Sprague-Dawley rat at 6 mg/kg, po; type: ADME, organism-based; set-up: dose 6 mg/kg, route oral; conditions: in vivo
[5] = Volume of distribution at steady state in Sprague-Dawley rat at 2 mg/kg, iv; type: ADME, organism-based; set-up: dose 2 mg/kg, route intravenous; conditions: in vivo, read-out: Vdss
Rattus norvegicus [6] = test: Reduction in mean arterial pressure in human renin and human angiotensinogen double transgenic rat at 100 mg/kg, po; type: functional, Artery
[7] = Oral bioavailability in Sprague-Dawley rat at 6 mg/kg; type: ADME, organism-based; conditions: in vivo
Rattus norvegicus [8] = test: Reduction in mean arterial pressure in human renin and human angiotensinogen double transgenic rat at 1 mg/kg, po; type: functional, Artery
[9] = Half life in Sprague-Dawley rat at 2 mg/kg, iv; type: ADME, organism-based; set-up: dose 2 mg/kg, route intravenous; conditions: in vivo
Rattus norvegicus [10] = test: Reduction in mean arterial pressure in human renin and human angiotensinogen double transgenic rat at 30 mg/kg, po; type: functional, Artery
[11] = Clearance in Sprague-Dawley rat at 2 mg/kg, iv; type: ADME, organism-based; set-up: dose 2 mg/kg, route intravenous; conditions: in vivo
[12] = molecular target: Sodium channel protein type 5 subunit alpha (Homo sapiens, UniProt Q14524); test: Inhibition of Nav1.5 (unknown origin) by patch clamp assay
Cathepsin D = Cathepsin D (Homo sapiens, UniProt P07339); test: Inhibition of human recombinant procathepsin D expressed in SF9 cells using fluorescence-quenched Ac-E-D(EDANS)-KPILFFRLG-K(Dabcyl)-E-Amid substrate by fluorimetric assay
Sequence of Cathepsin D (P07339 65-162 limits assumed): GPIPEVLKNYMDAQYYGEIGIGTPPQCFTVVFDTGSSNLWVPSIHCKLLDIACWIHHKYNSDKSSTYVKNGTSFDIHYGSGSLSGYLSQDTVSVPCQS
Sequence of Cathepsin D (P07339 169-412 limits assumed): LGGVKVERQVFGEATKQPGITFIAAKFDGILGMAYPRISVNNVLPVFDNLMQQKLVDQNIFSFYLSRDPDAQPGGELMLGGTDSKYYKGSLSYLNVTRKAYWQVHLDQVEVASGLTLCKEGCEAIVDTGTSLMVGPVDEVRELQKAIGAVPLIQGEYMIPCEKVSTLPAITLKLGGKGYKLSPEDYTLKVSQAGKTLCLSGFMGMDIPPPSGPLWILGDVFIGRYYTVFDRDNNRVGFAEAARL

Cytochrome P450 2C9 = Cytochrome P450 2C9 (Homo sapiens, UniProt P11712); test: Inhibition of CYP2C9 (unknown origin); type: ADME
Sequence of Cytochrome P450 2C9 (P11712 whole entry): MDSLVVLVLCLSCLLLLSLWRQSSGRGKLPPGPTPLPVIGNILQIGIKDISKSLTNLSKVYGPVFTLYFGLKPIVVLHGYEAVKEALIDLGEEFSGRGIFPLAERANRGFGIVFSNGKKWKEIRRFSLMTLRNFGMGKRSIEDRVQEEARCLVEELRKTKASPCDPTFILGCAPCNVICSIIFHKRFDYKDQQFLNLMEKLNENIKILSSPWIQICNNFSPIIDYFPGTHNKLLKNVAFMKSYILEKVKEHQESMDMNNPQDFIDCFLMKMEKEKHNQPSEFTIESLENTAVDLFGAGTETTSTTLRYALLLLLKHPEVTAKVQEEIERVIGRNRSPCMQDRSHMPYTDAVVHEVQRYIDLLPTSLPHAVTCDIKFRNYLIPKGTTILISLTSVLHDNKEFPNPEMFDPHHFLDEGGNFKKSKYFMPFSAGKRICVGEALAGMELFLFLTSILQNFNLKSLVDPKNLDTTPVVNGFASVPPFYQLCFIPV

Gastricsin = molecular target: T1, Gastricsin (Homo sapiens, UniProt P20142); test: Inhibition of human recombinant pepsinogen C expressed in Escherichia coli using fluorescence-quenched Dabcyl-E-R-Nle-F-L-S-F-P-EDANS substrate by fluorimetric assay
T1 sequence (P20142 whole entry): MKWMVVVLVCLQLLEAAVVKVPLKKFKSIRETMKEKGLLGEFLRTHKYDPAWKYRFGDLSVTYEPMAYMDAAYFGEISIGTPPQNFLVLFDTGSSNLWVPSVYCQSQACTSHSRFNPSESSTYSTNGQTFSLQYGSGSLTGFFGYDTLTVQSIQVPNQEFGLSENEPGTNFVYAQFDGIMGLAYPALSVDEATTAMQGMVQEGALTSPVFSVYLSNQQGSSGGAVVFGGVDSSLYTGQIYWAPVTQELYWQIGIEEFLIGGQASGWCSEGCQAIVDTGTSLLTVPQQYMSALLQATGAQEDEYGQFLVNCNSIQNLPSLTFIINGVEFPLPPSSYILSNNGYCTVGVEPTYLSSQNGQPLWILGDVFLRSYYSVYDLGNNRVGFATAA

Cytochrome P450 2D6 = Cytochrome P450 2D6 (Homo sapiens, UniProt P10635); test: Inhibition of CYP2D6 (unknown origin); type: ADME
Sequence of Cytochrome P450 2D6 (P10635 whole entry): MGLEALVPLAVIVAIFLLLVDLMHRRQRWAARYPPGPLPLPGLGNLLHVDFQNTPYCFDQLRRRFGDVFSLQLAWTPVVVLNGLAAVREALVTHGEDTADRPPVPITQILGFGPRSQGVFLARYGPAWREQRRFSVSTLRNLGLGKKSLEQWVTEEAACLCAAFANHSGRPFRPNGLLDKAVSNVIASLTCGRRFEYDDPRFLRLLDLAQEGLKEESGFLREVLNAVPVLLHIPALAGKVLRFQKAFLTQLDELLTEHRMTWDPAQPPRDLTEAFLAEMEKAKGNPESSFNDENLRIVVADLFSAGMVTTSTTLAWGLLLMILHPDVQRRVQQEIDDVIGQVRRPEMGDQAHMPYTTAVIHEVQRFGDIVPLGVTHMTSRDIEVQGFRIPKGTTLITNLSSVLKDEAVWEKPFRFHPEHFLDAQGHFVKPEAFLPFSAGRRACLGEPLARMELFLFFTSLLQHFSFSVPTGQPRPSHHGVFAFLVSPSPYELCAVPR

[13] = Solubility in water at pH 1 to 9; type: physicochemical
Salmonella typhimurium [14] = test: Mutagenicity in Salmonella typhimurium in presence of liver S9 fraction by Ames test; type: toxicity, organism-based; conditions: salmonella enterica subsp. enterica serovar typhimurium
Beta-secretase 2 = molecular target: T2, Beta-secretase 2 (Homo sapiens, UniProt Q9Y5Z0); test: Inhibition of human recombinant BACE2 expressed in SF9 cells using fluorescence-quenched RE(EDANS)-EVNLDAEF-K(DABSYL)-R substrate by fluorimetric assay
T2 sequence (Q9Y5Z0 whole entry): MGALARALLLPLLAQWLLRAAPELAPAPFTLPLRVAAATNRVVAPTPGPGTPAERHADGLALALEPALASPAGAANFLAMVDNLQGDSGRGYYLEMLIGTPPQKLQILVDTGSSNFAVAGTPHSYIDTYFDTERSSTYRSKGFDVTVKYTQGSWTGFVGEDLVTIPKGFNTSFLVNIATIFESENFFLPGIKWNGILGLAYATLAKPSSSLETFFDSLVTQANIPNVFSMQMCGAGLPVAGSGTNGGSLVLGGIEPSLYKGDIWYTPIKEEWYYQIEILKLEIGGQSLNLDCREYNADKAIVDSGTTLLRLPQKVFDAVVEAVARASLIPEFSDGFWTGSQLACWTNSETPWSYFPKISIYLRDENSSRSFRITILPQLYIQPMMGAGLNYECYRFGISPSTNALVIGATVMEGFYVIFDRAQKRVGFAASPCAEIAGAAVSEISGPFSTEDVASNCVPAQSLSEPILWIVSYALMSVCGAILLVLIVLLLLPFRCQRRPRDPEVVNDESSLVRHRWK

Cathepsin E = molecular target: T3, Cathepsin E (Homo sapiens, UniProt P14091); test: Inhibition of human recombinant human procathepsin E expressed in Escherichia coli using fluorescence-quenched Ac-E-D(EDANS)-KPILFFRLG-K(Dabcyl)-E-Amid substrate by fluorimetric assay
T3 sequence (P14091 whole entry): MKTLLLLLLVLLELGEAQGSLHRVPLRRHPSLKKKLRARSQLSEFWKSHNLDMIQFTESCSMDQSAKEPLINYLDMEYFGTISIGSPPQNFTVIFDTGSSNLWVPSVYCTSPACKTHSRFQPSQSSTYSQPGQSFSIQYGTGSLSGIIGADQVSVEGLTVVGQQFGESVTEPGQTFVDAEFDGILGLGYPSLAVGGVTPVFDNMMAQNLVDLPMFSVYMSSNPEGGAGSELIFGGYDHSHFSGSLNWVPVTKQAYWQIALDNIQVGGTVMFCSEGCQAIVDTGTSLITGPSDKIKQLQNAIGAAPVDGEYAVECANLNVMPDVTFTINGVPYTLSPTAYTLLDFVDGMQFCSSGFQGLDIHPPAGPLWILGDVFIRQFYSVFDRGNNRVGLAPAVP

Cytochrome P450 3A4 = Cytochrome P450 3A4 (Homo sapiens, UniProt P08684); test: Inhibition of CYP3A4 (unknown origin); type: ADME
Sequence of Cytochrome P450 3A4 (P08684 whole entry): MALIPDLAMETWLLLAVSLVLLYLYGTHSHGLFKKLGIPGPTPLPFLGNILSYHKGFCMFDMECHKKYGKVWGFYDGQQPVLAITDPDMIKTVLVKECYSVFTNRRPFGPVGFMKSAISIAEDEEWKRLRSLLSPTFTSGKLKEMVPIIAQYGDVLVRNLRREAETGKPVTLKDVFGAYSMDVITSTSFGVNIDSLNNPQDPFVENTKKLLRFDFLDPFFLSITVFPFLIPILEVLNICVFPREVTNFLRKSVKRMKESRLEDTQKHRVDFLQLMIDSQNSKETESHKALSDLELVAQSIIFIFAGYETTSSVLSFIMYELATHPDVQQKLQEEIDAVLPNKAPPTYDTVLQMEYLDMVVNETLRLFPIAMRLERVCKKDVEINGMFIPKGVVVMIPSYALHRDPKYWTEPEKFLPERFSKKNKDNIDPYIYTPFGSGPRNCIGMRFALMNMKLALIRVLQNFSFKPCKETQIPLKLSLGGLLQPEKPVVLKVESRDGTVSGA

Pepsin A = Pepsin A (Homo sapiens, UniProt P0DJD9); test: Inhibition of human recombinant pepsinogen A expressed in Escherichia coli using fluorescence-quenched Dabcyl-E-R-Nle-F-L-S-F-P-EDANS substrate by fluorimetric assay
Sequence of Pepsin A (P0DJD9 whole entry): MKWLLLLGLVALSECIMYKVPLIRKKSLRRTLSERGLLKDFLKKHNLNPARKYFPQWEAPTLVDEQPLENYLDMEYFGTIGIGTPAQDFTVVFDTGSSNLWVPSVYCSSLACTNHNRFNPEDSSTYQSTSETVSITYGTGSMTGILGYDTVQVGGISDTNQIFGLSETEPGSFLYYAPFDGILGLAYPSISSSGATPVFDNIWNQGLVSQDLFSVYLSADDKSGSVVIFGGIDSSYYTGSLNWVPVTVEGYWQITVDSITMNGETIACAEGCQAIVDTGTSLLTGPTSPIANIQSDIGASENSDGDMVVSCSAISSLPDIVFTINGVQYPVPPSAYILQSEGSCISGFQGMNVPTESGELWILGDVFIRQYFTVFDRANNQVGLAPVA

Beta-secretase 1 = Beta-secretase 1 (Homo sapiens, UniProt P56817); test: Inhibition of human recombinant BACE1 expressed in SF9 cells using fluorescence-quenched RE(EDANS)-EVNLDAEF-K(DABSYL)-R substrate by fluorimetric assay
Sequence of Beta-secretase 1 (P56817 whole entry): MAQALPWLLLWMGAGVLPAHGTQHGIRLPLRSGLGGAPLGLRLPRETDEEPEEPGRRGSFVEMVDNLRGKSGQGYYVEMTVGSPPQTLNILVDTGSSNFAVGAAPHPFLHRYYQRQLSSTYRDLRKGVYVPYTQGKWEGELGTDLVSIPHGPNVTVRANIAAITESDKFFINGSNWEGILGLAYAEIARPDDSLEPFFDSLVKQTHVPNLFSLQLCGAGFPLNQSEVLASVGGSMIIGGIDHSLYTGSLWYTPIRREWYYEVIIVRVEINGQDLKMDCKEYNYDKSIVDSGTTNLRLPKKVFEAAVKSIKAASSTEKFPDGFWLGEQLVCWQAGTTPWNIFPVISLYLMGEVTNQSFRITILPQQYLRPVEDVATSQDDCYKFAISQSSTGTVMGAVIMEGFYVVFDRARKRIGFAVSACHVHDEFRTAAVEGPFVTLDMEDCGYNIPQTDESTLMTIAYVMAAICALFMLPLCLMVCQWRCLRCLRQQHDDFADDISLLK

[15] = Lipophilicity, logD of the compound at pH 6.8; type: physicochemical; conditions: buffer
[16] = molecular target: Sodium channel protein type 2 subunit alpha (Homo sapiens, UniProt Q99250); test: Inhibition of Nav1.2 (unknown origin) by patch clamp assay
Sequence of Sodium channel protein type 2 subunit alpha (Q99250 whole entry): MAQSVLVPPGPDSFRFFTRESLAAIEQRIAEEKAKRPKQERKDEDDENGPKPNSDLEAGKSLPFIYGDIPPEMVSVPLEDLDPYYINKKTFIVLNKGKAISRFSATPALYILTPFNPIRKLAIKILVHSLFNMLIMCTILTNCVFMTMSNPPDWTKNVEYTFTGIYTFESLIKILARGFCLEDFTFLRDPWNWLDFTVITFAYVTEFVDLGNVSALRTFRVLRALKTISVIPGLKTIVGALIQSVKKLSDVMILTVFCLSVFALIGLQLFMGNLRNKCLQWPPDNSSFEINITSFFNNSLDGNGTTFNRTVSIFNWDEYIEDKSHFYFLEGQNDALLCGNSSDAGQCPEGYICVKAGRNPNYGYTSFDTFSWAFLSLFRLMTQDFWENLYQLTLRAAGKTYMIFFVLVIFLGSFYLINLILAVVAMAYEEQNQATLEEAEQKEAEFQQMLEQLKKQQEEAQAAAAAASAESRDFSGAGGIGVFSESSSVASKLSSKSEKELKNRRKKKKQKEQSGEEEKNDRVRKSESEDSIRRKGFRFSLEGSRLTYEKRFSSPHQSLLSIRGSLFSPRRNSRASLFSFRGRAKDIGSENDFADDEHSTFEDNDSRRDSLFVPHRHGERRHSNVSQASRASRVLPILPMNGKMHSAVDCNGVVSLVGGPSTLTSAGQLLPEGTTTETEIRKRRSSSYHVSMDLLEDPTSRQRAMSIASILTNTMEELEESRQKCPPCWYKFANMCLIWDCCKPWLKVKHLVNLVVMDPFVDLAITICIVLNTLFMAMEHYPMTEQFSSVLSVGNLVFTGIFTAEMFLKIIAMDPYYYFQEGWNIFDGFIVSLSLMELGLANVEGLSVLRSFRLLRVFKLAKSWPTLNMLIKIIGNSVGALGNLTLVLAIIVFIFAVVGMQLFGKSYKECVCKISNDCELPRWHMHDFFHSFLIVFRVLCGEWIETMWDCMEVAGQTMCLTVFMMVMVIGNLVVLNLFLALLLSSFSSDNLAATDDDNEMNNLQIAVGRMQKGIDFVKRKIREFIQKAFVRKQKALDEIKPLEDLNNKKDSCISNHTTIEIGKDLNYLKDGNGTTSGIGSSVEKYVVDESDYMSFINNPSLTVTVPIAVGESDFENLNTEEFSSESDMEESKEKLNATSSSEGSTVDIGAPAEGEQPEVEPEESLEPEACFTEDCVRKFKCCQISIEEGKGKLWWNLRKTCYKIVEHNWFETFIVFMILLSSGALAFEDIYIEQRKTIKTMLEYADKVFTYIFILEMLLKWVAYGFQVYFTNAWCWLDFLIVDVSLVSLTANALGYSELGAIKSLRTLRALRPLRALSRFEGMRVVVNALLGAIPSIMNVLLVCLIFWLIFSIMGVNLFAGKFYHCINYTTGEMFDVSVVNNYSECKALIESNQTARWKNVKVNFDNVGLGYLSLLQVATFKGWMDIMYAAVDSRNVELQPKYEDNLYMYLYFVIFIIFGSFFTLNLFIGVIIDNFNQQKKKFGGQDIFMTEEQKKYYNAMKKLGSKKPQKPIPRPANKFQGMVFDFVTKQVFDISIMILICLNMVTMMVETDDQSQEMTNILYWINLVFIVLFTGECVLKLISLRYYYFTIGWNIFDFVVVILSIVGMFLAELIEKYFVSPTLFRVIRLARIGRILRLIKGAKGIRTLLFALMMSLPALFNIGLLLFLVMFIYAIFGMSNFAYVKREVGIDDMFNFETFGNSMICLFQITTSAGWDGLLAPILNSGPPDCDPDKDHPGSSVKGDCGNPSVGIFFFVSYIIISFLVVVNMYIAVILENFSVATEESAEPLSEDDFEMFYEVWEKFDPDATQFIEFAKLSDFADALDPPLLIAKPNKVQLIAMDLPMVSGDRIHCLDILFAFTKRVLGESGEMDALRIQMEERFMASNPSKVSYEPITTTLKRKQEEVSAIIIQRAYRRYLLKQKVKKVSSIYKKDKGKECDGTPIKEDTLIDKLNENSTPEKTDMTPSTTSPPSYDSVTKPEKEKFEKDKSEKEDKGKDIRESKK

Salmonella typhimurium [17] = test: Mutagenicity in Salmonella typhimurium in absence of liver S9 fraction by Ames test; type: toxicity, organism-based; conditions: salmonella enterica subsp. enterica serovar typhimurium
[18] = Chemical stability at 80 degC; type: physicochemical

CCOC[C@@H](CC(C)C)NC(=O)[C@@H]1CNC[C@H](C(=O)N(c2ccc(C(C)C)cn2)C2CC2)[C@@H]1O.O=C(O)CCC(=O)O
Cmax/dose (Rattus norvegicus [1]): 136 nM/mg/kg
Activity (Rattus norvegicus [2]): 52 mmHg
Activity (Rattus norvegicus [3]): 42 mmHg
AUC/dose (Rattus norvegicus [4]): 552 nM·h/mg/kg
Vd [5]: 4 L/kg
Activity (Rattus norvegicus [6]): 66 mmHg
bioavailability [7]: 61%
Activity (Rattus norvegicus [8]): 33 mmHg
half-life [9]: 6.8 h
Activity (Rattus norvegicus [10]): 63 mmHg
clearance [11]: 40 mL/min/kg

CCOC[C@@H](CC(C)C)NC(=O)[C@@H]1CNC[C@H](C(=O)N(c2ccc(C(C)C)cn2)C2CC2)[C@@H]1O
IC50 [12]: > 30 µM
IC50 (Cathepsin D): > 30 µM
IC50 (Cytochrome P450 2C9): > 30 µM
IC50 (Gastricsin): > 30 µM
IC50 (Cytochrome P450 2D6): > 30 µM
solubility [13]: > 10000 µg/mL
Activity (Salmonella typhimurium [14]): Non-toxic
IC50 (Beta-secretase 2): > 30 µM
IC50 (Cathepsin E): > 30 µM
IC50 (Cytochrome P450 3A4): > 30 µM
IC50 (Pepsin A): > 30 µM
IC50 (Beta-secretase 1): > 30 µM
logD [15]: 0.93
IC50 [16]: > 30 µM
Activity (Salmonella typhimurium [17]): Non-toxic
Stability [18]: 3 days
